Source: ChEMBL document CHEMBL4706485, “Development of cell-permeable peptide-based PROTACs targeting estrogen receptor α” (Eur J Med Chem, 2020)
pIC50: −log10 of the molar value. Values belong to the compound of their own block, whether it stands above or below them. The source made the active and inactive calls. The calls are words filed in the database; no cut-off is given here. Square brackets hold non-standard residues; d marks the D form. Peptide text beside a SMILES is read from it. Hyp = O=C(O)[C@@H]1C[C@@H](O)CN1; Ahx = NCCCCCC(=O)O

Columns and labels:
[1] = system: MCF7; assay: Cytotoxicity against human MCF7 cells assessed as reduction in cell viability at 5 to 80 uM after 48 hrs by MTT assay; format: functional, cell-based; conditions: dose 5-80 µM
[2] = molecular target: T1, von Hippel-Lindau disease tumor suppressor/Estrogen receptor (Homo sapiens) (UniProt P03372+P40337); assay: Protac activity at VHL/ERalpha in human MCF7 cells assessed as degradation of ERalpha protein level at 10 uM after 12 hrs by Western blot analysis; format: cell-based
[3] = Drug uptake in human MCF7 cells at 10 uM FITC labelled form of compound after 12 hrs by flow cytometric analysis; format: ADME, cell-based; conditions: mcf7, 12 h
[4] = system: MCF7; assay: Induction of apoptosis in human MCF7 cells assessed as viable cells at 10 uM after 12 hrs by annexinV-FITC/PI staining based flow cytometric analysis (reference value: 95.4 to 97.6%); format: functional; conditions: read-out: Activity
[5] = system: MCF7; assay: Induction of apoptosis in human MCF7 cells assessed as early apoptotic cells at 10 uM after 12 hrs by annexinV-FITC/PI staining based flow cytometric analysis (reference value: 0.8 to 1.6%); format: functional
[6] = system: MCF7; assay: Induction of apoptosis in human MCF7 cells assessed as late apoptotic cells at 10 uM after 12 hrs by annexinV-FITC/PI staining based flow cytometric analysis (reference value: 0.9 to 1.9%); format: functional
[7] = system: MCF7; assay: Induction of apoptosis in human MCF7 cells assessed as necrotic cells at 10 uM after 12 hrs by annexinV-FITC/PI staining based flow cytometric analysis (reference value: 0.7 to 1.1%); format: functional
[8] = system: 4T1; assay: Antitumour activity against mouse 4T1 cells implanted in BALB/c mouse assessed as inhibition in tumor growth at 10 umol/kg administered peri-tumor injection for 21 days relative to control; format: functional; conditions: 4T1, 504 h, time 21 day, read-out: TGI
[9] = Toxicity in BALB/c mouse implanted with mouse 4T1 cells assessed as change in body weight at 10 umol/kg administered peri-tumor injection for 21 days; conditions: in vivo, other, 504 h, dose 10 µmol/kg, time 21 day
[10] = system: MCF7; assay: Cytotoxicity against human MCF7 cells assessed as reduction in cell viability after 48 hrs by MTT assay; format: functional, cell-based
[11] = system: A2780; assay: Cytotoxicity against human A2780 cells assessed as reduction in cell viability at 5 to 80 uM after 48 hrs by MTT assay; format: functional, cell-based; conditions: dose 5-80 µM
[12] = system: MDA-MB-231; assay: Cytotoxicity against human MDA-MB-231 cells assessed as reduction in cell viability at 5 to 80 uM after 48 hrs by MTT assay; format: functional, cell-based; conditions: dose 5-80 µM
[13] = system: HUVEC; assay: Cytotoxicity against human HUVEC cells assessed as reduction in cell viability at 5 to 80 uM after 48 hrs by MTT assay; format: cell-based; conditions: dose 5-80 µM
[14] = molecular target: T1, von Hippel-Lindau disease tumor suppressor/Estrogen receptor (Homo sapiens); assay: Protac activity at VHL/ERalpha in human A2780 cells assessed as degradation of ERalpha protein level at 10 uM after 12 hrs by Western blot analysis; format: cell-based
[15] = Drug uptake in human MCF7 cells FITC labelled form of compound by flow cytometric analysis; format: ADME, cell-based; conditions: dose lower 2 µM, time lower 2 hrs, dose upper 16 µM, time upper 24 hrs
[16] = Drug uptake in human MCF7 cells at 10 uM FITC labelled form of compound after 3 hrs by Hoechst 33258 staining based fluorescence microscopic analysis; format: ADME, cell-based; conditions: mcf7, 3 h
[17] = system: MCF7; assay: Induction of apoptosis in human MCF7 cells assessed as increase in late apoptotic cells after 12 hrs by annexinV-FITC/PI staining based flow cytometric analysis; format: functional, cell-based; conditions: dose 5-20 µM
[18] = system: MCF7; assay: Induction of apoptosis in human MCF7 cells assessed as increase in necrotic cells after 12 hrs by annexinV-FITC/PI staining based flow cytometric analysis; format: functional, cell-based; conditions: dose 5-20 µM
[19] = system: MCF7; assay: Induction of apoptosis in human MCF7 cells assessed as viable cells at 5 uM after 12 hrs by annexinV-FITC/PI staining based flow cytometric analysis (reference value: 95.4 to 97.6%); format: functional; conditions: read-out: Activity
[20] = system: MCF7; assay: Induction of apoptosis in human MCF7 cells assessed as early apoptotic cells at 5 uM after 12 hrs by annexinV-FITC/PI staining based flow cytometric analysis (reference value: 0.8 to 1.6%); format: functional
[21] = system: MCF7; assay: Induction of apoptosis in human MCF7 cells assessed as late apoptotic cells at 5 uM after 12 hrs by annexinV-FITC/PI staining based flow cytometric analysis (reference value: 0.9 to 1.9%); format: functional
[22] = system: MCF7; assay: Induction of apoptosis in human MCF7 cells assessed as necrotic cells at 5 uM after 12 hrs by annexinV-FITC/PI staining based flow cytometric analysis (reference value: 0.7 to 1.1%); format: functional
[23] = system: MCF7; assay: Induction of apoptosis in human MCF7 cells assessed as viable cells at 20 uM after 12 hrs by annexinV-FITC/PI staining based flow cytometric analysis (reference value: 95.4 to 97.6%); format: functional; conditions: read-out: Activity
[24] = system: MCF7; assay: Induction of apoptosis in human MCF7 cells assessed as early apoptotic cells at 20 uM after 12 hrs by annexinV-FITC/PI staining based flow cytometric analysis (reference value: 0.8 to 1.6%); format: functional
[25] = system: MCF7; assay: Induction of apoptosis in human MCF7 cells assessed as late apoptotic cells at 20 uM after 12 hrs by annexinV-FITC/PI staining based flow cytometric analysis (reference value: 0.9 to 1.9%); format: functional
[26] = system: MCF7; assay: Induction of apoptosis in human MCF7 cells assessed as necrotic cells at 20 uM after 12 hrs by annexinV-FITC/PI staining based flow cytometric analysis (reference value: 0.7 to 1.1%); format: functional
[27] = molecular target: T1, von Hippel-Lindau disease tumor suppressor/Estrogen receptor (Homo sapiens); assay: Protac activity at VHL/ERalpha in human MCF7 cells assessed as increase in ubiquitinated-ERalpha at 10 uM after 6 hrs in presence of MG-132 by Western blot analysis; format: cell-based
[28] = molecular target: von Hippel-Lindau disease tumor suppressor/Progesterone receptor (Homo sapiens) (UniProt P06401+P40337); assay: Protac activity at VHL/PR in human MCF7 cells assessed as degradation of PR protein level at 10 uM after 12 hrs by Western blot analysis; format: cell-based
[29] = molecular target: von Hippel-Lindau disease tumor suppressor/Vitamin D3 receptor (Homo sapiens) (UniProt P11473+P40337); assay: Protac activity at VHL/VDR in human MCF7 cells assessed as degradation of VDR protein level at 10 uM after 12 hrs by Western blot analysis; format: cell-based
[30] = system: MCF7; assay: Cytotoxicity against human MCF7 cells assessed as reduction in cell viability at 20 uM after 48 hrs by MTT assay; format: functional, cell-based

T1 sequence (P03372 whole entry, looked up): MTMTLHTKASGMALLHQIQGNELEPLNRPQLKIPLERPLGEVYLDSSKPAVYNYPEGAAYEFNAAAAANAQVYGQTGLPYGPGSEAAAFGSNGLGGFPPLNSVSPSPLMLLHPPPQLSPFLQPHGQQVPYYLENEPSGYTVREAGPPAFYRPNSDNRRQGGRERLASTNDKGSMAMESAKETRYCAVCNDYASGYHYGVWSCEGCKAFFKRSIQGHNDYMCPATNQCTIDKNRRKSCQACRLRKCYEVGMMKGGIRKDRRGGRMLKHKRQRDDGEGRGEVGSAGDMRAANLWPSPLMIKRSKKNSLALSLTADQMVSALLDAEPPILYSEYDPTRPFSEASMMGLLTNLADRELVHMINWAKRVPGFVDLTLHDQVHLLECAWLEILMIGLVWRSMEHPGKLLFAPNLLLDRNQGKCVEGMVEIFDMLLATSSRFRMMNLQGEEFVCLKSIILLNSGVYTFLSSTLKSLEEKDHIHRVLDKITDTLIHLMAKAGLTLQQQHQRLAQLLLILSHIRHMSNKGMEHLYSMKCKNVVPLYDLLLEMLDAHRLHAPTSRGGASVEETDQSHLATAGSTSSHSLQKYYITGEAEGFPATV
T1 sequence (P40337 whole entry, looked up): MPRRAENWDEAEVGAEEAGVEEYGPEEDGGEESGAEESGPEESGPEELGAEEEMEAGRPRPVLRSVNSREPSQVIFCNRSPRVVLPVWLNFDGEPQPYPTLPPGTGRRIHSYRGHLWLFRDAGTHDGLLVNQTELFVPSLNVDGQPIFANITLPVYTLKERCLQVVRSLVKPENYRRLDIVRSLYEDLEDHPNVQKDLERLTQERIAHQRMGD
Chain of von Hippel-Lindau disease tumor suppressor/Progesterone receptor (Homo sapiens) (P06401 whole entry, looked up): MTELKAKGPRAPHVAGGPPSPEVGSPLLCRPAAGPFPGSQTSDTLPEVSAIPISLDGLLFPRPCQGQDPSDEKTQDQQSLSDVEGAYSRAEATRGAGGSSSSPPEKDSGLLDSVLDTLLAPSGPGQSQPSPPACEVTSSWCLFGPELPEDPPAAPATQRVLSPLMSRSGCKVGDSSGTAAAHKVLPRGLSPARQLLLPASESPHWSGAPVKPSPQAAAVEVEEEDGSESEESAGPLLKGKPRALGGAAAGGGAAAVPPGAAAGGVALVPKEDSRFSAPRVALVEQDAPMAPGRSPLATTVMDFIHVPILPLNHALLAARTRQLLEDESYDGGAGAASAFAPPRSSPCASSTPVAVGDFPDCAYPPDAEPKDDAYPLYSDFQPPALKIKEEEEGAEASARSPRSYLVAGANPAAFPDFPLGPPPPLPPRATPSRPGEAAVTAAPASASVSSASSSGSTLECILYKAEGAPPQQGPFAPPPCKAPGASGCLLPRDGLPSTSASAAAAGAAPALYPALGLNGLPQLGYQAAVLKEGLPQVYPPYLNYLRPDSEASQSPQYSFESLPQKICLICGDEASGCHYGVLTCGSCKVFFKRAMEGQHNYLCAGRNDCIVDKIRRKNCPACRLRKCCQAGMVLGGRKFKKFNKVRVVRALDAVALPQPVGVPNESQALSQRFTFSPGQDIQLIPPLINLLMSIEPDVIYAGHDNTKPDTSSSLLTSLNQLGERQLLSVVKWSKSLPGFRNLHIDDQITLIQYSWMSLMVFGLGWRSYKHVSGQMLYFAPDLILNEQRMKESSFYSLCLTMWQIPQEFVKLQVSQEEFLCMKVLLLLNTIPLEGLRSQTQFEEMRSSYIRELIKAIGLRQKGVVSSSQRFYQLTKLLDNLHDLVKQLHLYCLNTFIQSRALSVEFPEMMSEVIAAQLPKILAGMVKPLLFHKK
Chain of von Hippel-Lindau disease tumor suppressor/Progesterone receptor (Homo sapiens) (P40337 whole entry, looked up): as the sequence (P40337 whole entry, looked up) above
Chain of von Hippel-Lindau disease tumor suppressor/Vitamin D3 receptor (Homo sapiens) (P11473 whole entry, looked up): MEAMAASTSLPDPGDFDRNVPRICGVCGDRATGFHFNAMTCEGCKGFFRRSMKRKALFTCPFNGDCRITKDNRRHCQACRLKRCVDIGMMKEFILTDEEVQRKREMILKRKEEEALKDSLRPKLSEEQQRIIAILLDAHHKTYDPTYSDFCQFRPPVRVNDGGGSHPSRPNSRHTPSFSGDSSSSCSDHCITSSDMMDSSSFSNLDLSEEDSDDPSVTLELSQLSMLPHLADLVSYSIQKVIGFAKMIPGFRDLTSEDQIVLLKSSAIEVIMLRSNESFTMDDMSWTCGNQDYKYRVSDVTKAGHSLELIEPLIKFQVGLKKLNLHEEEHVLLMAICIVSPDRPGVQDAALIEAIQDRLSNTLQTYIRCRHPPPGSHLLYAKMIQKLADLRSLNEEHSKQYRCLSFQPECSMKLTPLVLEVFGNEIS
Chain of von Hippel-Lindau disease tumor suppressor/Vitamin D3 receptor (Homo sapiens) (P40337 whole entry, looked up): as the sequence (P40337 whole entry, looked up) above

- Activity [2]: Active
- Drug uptake [3]: Active
Structure (SMILES): CC[C@H](C)[C@H](NC(=O)[C@H](Cc1ccc(O)cc1)NC(=O)[C@@H]1C[C@@H](O)CN1C(=O)[C@H](C)NC(=O)[C@H](CC(C)C)NC(=O)CCCCCNC(=O)[C@H](CCC(N)=O)NC(=O)[C@H](CC(C)C)NC(=O)[C@H](CC(C)C)NC(=O)[C@H](CCCNC(=N)N)NC(=O)[C@@H]1CNC(=O)C(N[C@@H](CCCNC(=N)N)C(N)=O)CC(=O)N[C@@H]([C@@H](C)CC)C(=O)NC(CC(C)(C)C)C(=O)N1)C(N)=O (some centres undefined)
- Activity [1]: Active
- viability at 10 µM [4]: 80.2%
- Activity [5]: 0.7%
- Activity [6]: 7.1%
- Activity [7]: 11.9%

Structure (SMILES): CC/C(=C(\c1ccccc1)c1ccc(OCCN(C)C)cc1)c1ccccc1 [TAMOXIFEN]
- Activity [1]: Active
- inhibition in vivo at 10 µmol/kg [8]: 36%

- Activity [2]: Active
- Drug uptake [3]: Active
Structure (SMILES): CC[C@H](C)[C@H](NC(=O)[C@H](Cc1ccc(O)cc1)NC(=O)[C@@H]1C[C@@H](O)CN1C(=O)[C@H](C)NC(=O)[C@H](CC(C)C)NC(=O)CCCCCNC(=O)[C@H](CCC(N)=O)NC(=O)[C@H](CC(C)C)NC(=O)[C@H](CC(C)C)NC(=O)[C@H](CCCNC(=N)N)NC(=O)[C@@H]1CNC(=O)C(N[C@@H](CCCNC(=N)N)C(N)=O)CC(=O)N[C@@H]([C@@H](C)CC)C(=O)N[C@@H](CC(C)C)C(=O)N1)C(N)=O (some centres undefined)
- Activity [1]: Active
- viability at 10 µM [4]: 85%
- Activity [5]: 1.3%
- Activity [6]: 5.8%
- Activity [7]: 8%
- inhibition in vivo at 10 µmol/kg [8]: 52%
- Activity [9]: Non-Toxic

- Activity [2]: Active
- Drug uptake [3]: Active
Structure (SMILES): CC[C@H](C)[C@H](NC(=O)[C@H](Cc1ccc(O)cc1)NC(=O)[C@@H]1C[C@@H](O)CN1C(=O)[C@H](C)NC(=O)[C@H](CC(C)C)NC(=O)CCCCCNC(=O)[C@H](CCC(N)=O)NC(=O)[C@H](CC(C)C)NC(=O)C(CC(C)(C)C)NC(=O)[C@H](CCCNC(=N)N)NC(=O)[C@@H]1CNC(=O)C(N[C@@H](CCCNC(=N)N)C(N)=O)CC(=O)N[C@@H]([C@@H](C)CC)C(=O)N[C@@H](CC(C)C)C(=O)N1)C(N)=O (some centres undefined)
- Activity [1]: Active
- viability at 10 µM [4]: 78.5%
- Activity [5]: 0.9%
- Activity [6]: 7.9%
- Activity [7]: 12.7%

- Activity [2]: Active
- Drug uptake [3]: Active
Structure (SMILES): CC[C@H](C)[C@H](NC(=O)[C@H](Cc1ccc(O)cc1)NC(=O)[C@@H]1C[C@@H](O)CN1C(=O)[C@H](C)NC(=O)[C@H](CC(C)C)NC(=O)CCCCCNC(=O)[C@H](CCC(N)=O)NC(=O)C(CC(C)(C)C)NC(=O)[C@H](CC(C)C)NC(=O)[C@H](CCCNC(=N)N)NC(=O)[C@@H]1CNC(=O)C(N[C@@H](CCCNC(=N)N)C(N)=O)CC(=O)N[C@@H]([C@@H](C)CC)C(=O)N[C@@H](CC(C)C)C(=O)N1)C(N)=O (some centres undefined)
- Activity [1]: Active
- viability at 10 µM [4]: 76.7%
- Activity [5]: 0.4%
- Activity [6]: 7.7%
- Activity [7]: 15.2%

- Activity [2]: Active
- Activity [14]: Active
- Drug uptake [3]: Active
- Drug uptake [15]: Dose-dependent effect and Tde
- Drug uptake [16]: Active
- Activity [27]: Active
- Activity [28]: inactive
- Activity [29]: inactive
Structure (SMILES): CC[C@H](C)[C@H](NC(=O)[C@H](Cc1ccc(O)cc1)NC(=O)[C@@H]1C[C@@H](O)CN1C(=O)[C@H](C)NC(=O)[C@H](CC(C)C)NC(=O)CCCCCNC(=O)[C@H](CCC(N)=O)NC(=O)C(CC(C)(C)C)NC(=O)C(CC(C)(C)C)NC(=O)[C@H](CCCNC(=N)N)NC(=O)[C@@H]1CNC(=O)C(N[C@@H](CCCNC(=N)N)C(N)=O)CC(=O)N[C@@H]([C@@H](C)CC)C(=O)NC(CC(C)(C)C)C(=O)N1)C(N)=O (some centres undefined)
- Activity [1]: Active
- Activity [10]: Dose-dependent effect
- pIC50 ([10]; MCF7, 48 h): 5.01
- Activity [11]: Active
- Activity [12]: Active
- Activity [13]: Non-Toxic
- Activity [17]: Dose-dependent effect
- Activity [18]: Dose-dependent effect
- viability at 10 µM [4]: 59.5%
- Activity [5]: 0.7%
- Activity [6]: 13.6%
- Activity [7]: 26.2%
- viability at 5 µM [19]: 87.2%
- Activity [20]: 1.3%
- Activity [21]: 6%
- Activity [22]: 5.5%
- viability at 20 µM [23]: 28.8%
- Activity [24]: 0.4%
- Activity [25]: 26.2%
- Activity [26]: 44.6%
- inhibition in vivo at 10 µmol/kg [8]: 67%
- Activity [9]: Non-Toxic

- Activity [2]: Active
- Drug uptake [3]: Active
Structure (SMILES): CC[C@H](C)[C@H](NC(=O)[C@H](Cc1ccc(O)cc1)NC(=O)[C@@H]1C[C@@H](O)CN1C(=O)[C@H](C)NC(=O)[C@H](CC(C)C)NC(=O)CCCCCNC(=O)[C@H](CCC(N)=O)NC(=O)[C@H](CC(C)C)NC(=O)[C@H](CC(C)C)NC(=O)[C@H](CCCNC(=N)N)NC(=O)[C@H](Cc1c[nH]cn1)NC(=O)[C@H](CC(C)C)NC(=O)[C@@H](NC(=O)[C@H](CCCCN)NC(=O)[C@@H](N)Cc1c[nH]cn1)[C@@H](C)CC)C(N)=O (H-HKILHRLLQ[Ahx]LA[Hyp]YI-NH2)
- Activity [30]: Active
- viability at 10 µM [4]: 93.4%
- Activity [5]: 0.9%
- Activity [6]: 2.7%
- Activity [7]: 2.9%
